Measured values: patent US20090042783A1, “APO E ANALOGS AND METHODS FOR THEIR USE” (priority 2004, published 2009)
Where two headings read alike, the source gives them in different places. Marks after values point to notes of the source that are not given here.

Assays:
[1] = system: mice infected with C. rodentium; assay: C. rodentium colitis; type: in vivo; details: for Colon wt (% Total Body wt) / Histology Score / Body wt (% Total Body wt): 10 days; for Body wt (% Total Body wt): 0.1% BEC or 2.5% DFMO; for Inhibition of mortality vs water alone: 1% L-Arg in drinking water
Description: C. rodentium colitis: Of the two existing mouse models (Gobert A P et al., 2004; Cheng Y. et al., 2003), the C. rodentium model was selected because it produces a Th1-predominant mucosal inflammation that has histologic changes similar to human IBD (Higgins L M et al., 1999). In this model, mice are infected by oral gavage with C. rodentium (Gobert A P et al., 2004), a gram negative pathogenic bacterium that is the rodent equivalent of enteropathogenic E. coli that causes diarrhea in humans.
Since arginase I and iNOS were both abundantly expressed in the colitis tissues and L-Arg was completely metabolized, we investigated the effect of administration of 1% L-Arg in the drinking water. In wild type (WT) mice, C. rodentium colitis induced a high level of mortality that began on day 9 post-infection (FIG. 31A). In WT animals treated with L-Arg, mortality was inhibited by 42% and 62% compared to mice receiving water alone, after 12 and 14 days of infection, respectively (FIG. 31A). By Cox regression analysis, WT mice treated with L-Arg had only a 31% hazard of death compared with mice receiving water alone (p<0.0009). In iNOS^−/− mice, no deaths were observed, with or without L-Arg (FIG. 31A). […] Note that the weight loss of WT mice is underestimated, since only the weights of animals still alive could be included. […] There was an additive effect of iNOS deletion and L-Arg administration, with a 68% decrease in colon weight. Neither iNOS deletion nor L-Arg treatment affected colon weight in uninfected control mice. Importantly, these changes were closely paralleled by changes in colon histology (FIG. 32).
In uninfected control mice, BEC or DFMO had no effect (Table I). […] In fact, experiments had to be terminated early at 10 days post-infection, because of deaths and severe disease at this point.

mice with DSS colitis = assay: Dextran sulfate sodium (DSS) colitis; type: in vivo, mouse
Description: This model was selected because it has become commonly accepted as a mouse model of colitis and is quite practical to employ, since it simply involves adding DSS to the drinking water (Moteau O. et al., 2000, Williams K L et al. 2001, Andres P G et al., 2000, Mahler M. et al., 1998, Tesser T G et al., 1998).

peritoneal macrophages = assay: Peritoneal macrophage production of NO, TNFα and IL-6 induced by MOG or LPS/IFN-γ; type: cell-based, mouse
Method: For this purpose, three mice with clinical scores of 0 and three with clinical scores of 4 at 30 dpi (day post-immunization) were used for preparation of peritoneal macrophage cultures. Macrophages were collected after peritoneal lavage with 3 ml heparin (10 U/ml)-containing PBS and then seeded to 96-well microplates at a density of 1×10^5 cells/well in Dulbecco's MEM containing 10% fetal bovine serum, 2 mM L-glutamine serum, 1% HEPES and 100 U/ml penicillin and 100 μg/ml streptomycin, 37° C. in a humidified incubator with 5% CO2. 24 h later, the serum-containing medium was removed and cells were washed once with serum-free medium. To examine the differentiated response of macrophage to immune stimulators, macrophages obtained from mice with clinical scores of 0 or 4 were exposed to serial concentrations of IFN-γ/LPS or MOG35-55 peptide. […] Media were collected at 45 h or 72 h, and analyzed by ELISA for […] and IL-6 or for nitric oxide (NO) as detailed below.
As the stable end product of nitric oxide release, nitrite levels in conditioned media were determined by injecting 50 μl media sample into a Sievers 280 NOA analyzer (Boulder, Colo., USA). Total protein (μg/well) was measured using the BCA method (Pierce, Rockford, Ill., USA) according to manufacturer's instructions with BSA as standard. BCA values were measured using a Molecular Devices Thermomax Microplate Reader (Menlo Park, Calif., USA) at OD562. Nitric oxide levels ere expressed as μM NO2—/mg protein.
For cytokine assays, supernatants were collected 45 h after […]/LPS or MOG treatments and quantitative ELISAs using selected pairs of monoclonal antibodies (as recommended by the manufacturer Biosource) were performed to quantify the cytokines, TNF-α and IL-6. For TNF-α ELISA, 96-well ELISA plates were pre-coated with rabbit anti-mouse polyclonal to TNF-α as capture antibodies for 18 h at 2-8° C. and then blocked for 2 h at room temperature. The wells were incubated with samples or mouse TNF-α standards. Following incubation for 2 h at room temperature, the wells were washed, after which hamster anti-mouse TNF-α biotinylated secondary antibody and horseradish peroxidase conjugate were added. Tetramethylbenzidine (TMB) solution was then added, and peroxidase-catalyzed color change was stopped by acidification with 2 NH2SO4. The plates were scanned at wavelength 450 nm and the absorbance were measured. The results are expressed as the mean concentration (pg/ml) ±SEM.
For IL-6 ELISA, rat anti-mouse monoclonal to IL-6 was used as capture antibody, and biotinylated rat anti-mouse monoclonal to IL-6 as detection antibody. The rest of procedure is identical to that of TNF-α ELISA.

[2] = system: C57BL/6J mice with MOG-induced EAE; assay: MOG-induced experimental autoimmune encephalomyelitis (EAE)
Method: EAE was induced in mice following the method of Feinstein et al. (Feinstein, Galea, et al. 2002) 1) two s.c. injections, one on each flank of the hind legs with 300 μg MOG35-55 peptide in 0.1 ml PBS emulsified in an equal volume of CFA containing 5 mg/ml of Mycobacterium tuberculosis H37RA (Difco, St. Louis, Mo.) were given on Day 0.2) Pertussis toxin (200 ng per mouse in 0.1 ml PBS) was given i.p. immediately and 48 h after first MOG injection. 3) a booster immunization with an identical emulsion, route of administration and location was given on Day 7.
Following the encephalitogenic challenge, mice were monitored daily and neurological impairment was evaluated by clinical score (C.S.) as follows: 0, no clinical signs of EAE; 1, limp tail; 2, flaccid tail and abnormal gait (ataxia and/or paresis of hind limbs); 3, severe hind limb paresis; 4, complete paralysis with hind body; and 5, moribund or death.
Mice were anesthetized, bled, and perfused with 25 ml PBS and 25 ml 4% paraformaldehyde in buffered PBS. Brains and spinal cords were dissected out from 3 mice with a clinical score of 0 and another 3 mice with a clinical score of 4 on day 30 post-immunization. Tissues were post-fixed in 4% paraformaldehyde for another 24 h and then stored in 1×PBS with 0.1% sodium azide. Fixed tissues were embedded in paraffin and 5 μm thick sections were cut from brain, the brain stem and three different levels of spinal cord (cervical, thoracic and lumbar). Sections were stained with hematoxylin/eosin for evidence of inflammation and Luxol fast blue (for demyelination). The severity of inflammation was evaluated using the following criteria: 0, no inflammation; 1, cellular infiltrates only in the perivascular areas and meninges; 2, mild cellular infiltrates only in parenchyma (1-10/section); 3, moderate cellular infiltrates in parenchyma (11-100/section); 4, marked cellular infiltrates in parenchyma (>100 section).
In total, 10 doses of peptides were given.

BV2 microglial cells = system: BV2 microglial cells
Method: For suppression of inflammation profiling, each peptide analog was tested at a final concentration of 0.1, […], 1, 3, 5, 10 and 25 μM in an LPS induced BV2 microglial cell release of NO and/or TNFα. […] The modification was a biotin label on the apoE peptide (biotin-[…]-amide) which allows detection with ^125I-streptavidin (ISA, Amersham).
In overview, BV-2 cells are plated in 96 well plates in complete media and then the media is replaced the next day with serum free media or reduced serum (1%) media. […] Each concentration of peptide (standard initial concentrations are 0.1, 0.5, 1, 3, 10 and 25 μM) is added to at least 6 wells of cells (e.g. 6 wells get 0.1 μM peptide, 6 wells get 0.5 μM peptide, etc.) and data are averaged from all 6 wells. […] (2001). Cell viability is also measured with an MTT assay (Laskowitz et al. 2001).

[3] = system: BV2 murine microglial cells
Method: For Applicants preliminary work, the two most common PTDs, TAT and penetratin, were used.
Cell Culture: BV-2, a well-characterized murine microglial cell line (Bochinni, 1992), is cultured in high glucose content DMEM supplemented with 1% penicillin/streptomycin, 10% fetal calf serum, 1% nonessential amino acids, and 1% sodium pyruvate. Cells are grown to confluency; trypsinized; spun down; resuspended in serum-free OptiMEM containing 1% N2 supplement, 1% penicillin/streptomycin, 1% nonessential amino acids, and 1% sodium pyruvate; and plated at a concentration of 20,000 cells/well to remove any nonadherent cells and serum.
Supernatant is collected 24 and/or 48 h after LPS stimulation and assayed for nitrite.
Quantification of Nitric Oxide (NO): Accumulation of nitrite (stable end product of NO production) in the medium is measured by colometric Griess reagent system (Promega); the absorbance is determined at 540 nm.
Cell Viability Assay: Cell viability is measured using a nonradioactive cell viability assay (cell titer 96 AQ, Promega). The assay measures the bioreduction of MTS (3-(4,5-dimethylthiazole-2-)-5-(3-carboxymethoxyphenyl)-2-(4-sulfophenyl)-2H-tetrazolium by viable cells into formazan. The absorbance of the calorimetric assay is measured at λ 490 nm. Viability is assessed and used to normalize the nitrite data.

[4] = system: mice with traumatic brain injury; assay: Closed head injury model of traumatic brain injury (rotorod, Morris Water Maze); details: mouse, in vivo
Method: C57Bl/6J male mice (The Jackson Laboratory, ME), 12-16 weeks of age and weighing 24-32 g, are used for all experiments. Anesthesia is first induced with isoflurane in 30% O2/balance N2. The trachea is intubated and the lungs mechanically ventilated with 1.6% isoflurane in 30% O2/balance N2. Temperature is monitored with a rectal probe and maintained at 36.5° C. with a heat lamp. The right internal jugular vein is cannulated with silicone catheter. […] Intubated animals are then placed prone on a molded acrylic cast (FIG. 6A). […] The scalp is incised and the skull exposed. A concave 3 mm metallic disc is secured to the skull surface (with the concave surface in juxtaposition to the skull) by an adhesive. […] The disc is placed directly midline just caudal to bregma (FIG. 6B). […] The mice are positioned in a stereotactic frame. Although the stereotactactic frame helps to stabilize the animal and exactly calibrate the vertical displacement on impact (3 mm), ear bars are not used due to a much higher rate of skull fracture (or brainstem injury if the head rotates around the axis of the ear bars during impact). The piston is discharged at 6.8±0.2 m/s so as to impact the skull in the acrylic mold to move a maximum of approximately 3 mm (FIG. 6C). Inspired isoflurane is decreased to 0.7% immediately after impact. The scalp was infiltrated with lidocaine and closed with suture. Ophthalmic ointment was applied to the eyes for protection. The incidence of skull fracture is low (approximately 10%), as the metal disk helps to diffuse the impact, and the absence of ear bar fixation allows for displacement of the entire head. Mice were excluded if a depressed skull fracture was observed (incidence of approximately 10%). The animals are allowed to recover spontaneous ventilation then extubated. […] In these mice, arterial blood pressure, blood gas and glucose measurement at baseline, immediately after injury, and 15 minutes after injury are monitored during the recovery period.
Briefly, baseline performance on rotorod is established before the mice are intubated, the skin over the scalp reflected and a controlled cortical impact from a pneumatic impactor given on the midline. The skin is closed with surgical clips and the animals are constantly monitored until awake from anesthesia and then hourly for the next 4 hours. […] Performance on rotorod is tested at 24 hours post impaction and then every day for 5 days and data is presented as described. Groups of 12 mice are used for each compound at 0.5×MTD. […] Novel peptides and non-peptide analogs are also given by tail vein injection.
Daily Rotarod (RR) testing was used to assess short term motor and cerebellar deficit following head injury (Hamm et al., 1994). Mice were held by their tails and placed on the RR facing the wall by using gentle swinging motion while running in a constant speed mode.

Q: For N[C@@H](CSCCB(O)O)C(=O)O [BEC, S-(2-boronoethyl)-L-cysteine], which “Colon wt (% Total Body wt)” value ([1]; WT mice, C. rodentium) is on record?
A: 1.25 ± 0.07^b,d % Total Body wt

Q: And the “Histology Score” value ([1]; WT mice, C. rodentium)?
A: 9.25 ± 0.69^b,d

Q: What about the “Body wt (% Total Body wt)” value ([1]; WT mice, C. rodentium) of the same molecule?
A: 82.4 ± 5.2^a,c % Total Body wt

Q: What about the “Colon wt (% Total Body wt)” value ([1]; WT mice, PBS (uninfected)) of the same molecule?
A: 0.42 ± 0.04 % Total Body wt

Q: What about the “Histology Score” value ([1]; WT mice, PBS (uninfected)) of the same molecule?
A: 0.67 ± 0.17

Q: What about the “Body wt (% Total Body wt)” value ([1]; WT mice, PBS (uninfected)) of the same molecule?
A: 110.1 ± 2.2 % Total Body wt

Q: And the “Colon histologic injury score” value ([1]; iNOS−/− C. rodentium-infected mice + BEC, n=8, p<0.01)?
A: 6.44±0.98

Q: And the Colon weight ([1]; iNOS−/− C. rodentium-infected mice + BEC, p<0.05)?
A: 0.92±0.20 % of total body weight

Q: And the “Effect in uninfected control mice” value ([1]; in the drinking water)?
A: had no effect

Q: And the “Survival of C. rodentium-infected mice” value ([1]; in the drinking water)?
A: significant loss of survival

Q: And the “Clinical and histologic parameters of DSS colitis” value (mice with DSS colitis; WT and iNOS−/− mice, data not shown)?
A: exacerbation of clinical and histologic parameters of colitis

Q: For “RQIKIWFQNRRMKWKK (Protein transduction domain conjugate Antp) [antennapedia prefix peptide, portion of antennapedia that serves as a prefix to COG133, reference compound]”, which “Inhibition of cytokine production induced by MOG or LPS/IFN-γ” value (peritoneal macrophages) is on record?
A: showed no activity

Q: With “LLRKRLKRLHSALRVRL (Reverse of COG133) [Reverse Pep.]” as the molecule, how does the “LPS/IFN-γ-induced production of NO, TNFα and IL-6” value (peritoneal macrophages; COG133 at 1 μM rather than at 5 μM, P<0.05) read?
A: failed to inhibit this production

Q: What about the “MOG-induced production of NO and TNFα” value (peritoneal macrophages; macrophages from C.S. 4 mice, 72 h after MOG 20 μg/ml) of the same molecule?
A: did not display such an inhibitory effect

Q: And the “Clinical severity of EAE” value ([2]; 1 mg/kg i.v., 10 doses)?
A: did not improve the behavioral symptoms of EAE

Q: And the Incidence ([2]; 1 mg/kg i.v., 10 doses)?
A: 10/10

Q: And the Mortality ([2]; 1 mg/kg i.v., 10 doses)?
A: 3/10

Q: And the Day of onset ([2]; 1 mg/kg i.v., 10 doses Day 6-22, mean ± SEM)?
A: 17.3 ± 1.12

Q: And the Mortality ([2]; 1 mg/kg i.v., 10 doses, listed as reverse peptide)?
A: 5 of 15

Q: What about the Mean maximum score ([2]; clinical score 0-5, mean ± SEM) of the same molecule?
A: 3.9 ± 0.31

Q: What about the “Suppression of NO and/or TNFα release from LPS treated BV2 cells” value (BV2 microglial cells) of the same molecule?
A: lacked bioactivity

Q: Which results are given for N=C(N)NCCC[C@H](N)C(=O)O [L-Arg]?
A: Inhibition of mortality vs water alone ([1]; WT mice, 12 days of infection): 42%; Inhibition of mortality vs water alone ([1]; WT mice, 14 days of infection): 62%; Hazard of death compared with water alone (Cox regression) ([1]; WT mice, p<0.0009): 31%; Decrease in colon weight ([1]; infected WT mice): 28%; Weight loss ([1]; infected WT mice): reduced weight loss; Increase in colonic ODC activity ([1]; infected WT mice treated with L-Arg): 40 fold; Increase in colonic polyamines ([1]; infected WT mice with L-Arg treatment): 2.7±0.2 fold; Decrease in colon weight ([1]; infected iNOS−/− mice given L-Arg): 68%; IFN-γ, TNF-α and IL-1 mRNA in colitis tissues ([1]; real-time PCR): significant attenuation of these increases; Clinical parameters of DSS colitis (mice with DSS colitis; L-Arg (1%)): reduction in clinical parameters of colitis; Colonic polyamine levels in DSS colitis (mice with DSS colitis; mouse, in vivo): enhanced polyamine levels

Q: How did the IC50 [3] turn out when “Ac-RGGRLAYLRRRWAVLGRLRVRLASHLRKLRKRLL-NH2 (N-terminus and C-terminus assumed) [SynB5]” was run?
A: 3.2 µM

Q: And the IC50 ([3]; read-out: IC50 TNFα, in vitro)?
A: 4.2 µM

Q: And the “In vivo Therapeutic window time expanded?” value [4]?
A: No; Tested at 6 X
